Measurements: patent US20150290227A1, “USE OF HAMAMELITANNIN FOR THE TREATMENT OF STAPHYLOCOCCAL INFECTIONS” (priority 2006, published 2015)
“And” between values parts separate entries of the source, which are not always exact repeats. Equal values may be shown once.

Tests used:
S. aureus strain = experiment: Bacterial growth in vitro / MIC; assay type: cell-based
[1] = system: cell damage induced by peroxides or UVB radiation; settings: cited from earlier work
MRSE [2] = experiment: Rat graft-associated infection, local treatment (graft soak), MRSE challenge; assay type: in vivo, S. epidermidis; settings: for bacterial load on graft: day 7
Description: (§1) FIG. 7 is a graph presentation of the effectiveness of bacterial graft-associated infection inhibition by hamamelitannin against challenge by MRSA and MRSE using local treatment (graft soak).
(§2) To test if hamamelitannin could inhibit graft-associated infection, grafts (1 cm^2 collagen coated Dacron) were soaked for 1 h in increasing hamamelitannin concentrations. The graft was then implanted into the animal, and bacteria injected onto the graft. Seven days later the graft was removed and bacteria on the graft counted.

[3] = system: tumor necrosis factor α-mediated endothelial cell death; settings: cited from earlier work
RNAIII = RNAIII production in S. aureus cells containing rnaiii::blaZ fusion construct, measured as β-lactamase activity; assay type: cell-based; settings: for inhibition of RNAIII synthesis (in words): 0-50 μg
Description: RNAIII levels were determined as β-lactamase activity (reporter gene product) and denoted as Vmax.
To test if hamamelitannin is a quorum sensing inhibitor and thus suppresses RNAIII synthesis, 2×10^7 cells were incubated with increasing amounts (0-50 μg) of hamamelitannin (or RIP). RNAIII levels were measured as β-lactamase activity as a reporter gene product by the addition of nitrocefin as substrate. […] Hamamelitannin (2′,5-di-O-galloyl hamamelose) was purchased from Chromadex, Inc. (93% purity, as assessed by HPLC by the manufacturer). Hamamelitannin was dissolved in water at 25 mg/ml and stored at −70° C. until use.

MRSE [4] = experiment: Rat graft-associated infection, bacteria pre-incubated with agent, MRSE challenge; assay type: in vivo, S. epidermidis; settings: for amount that could prevent an infection: infection caused by 2×10^7 CFU MRSE, rat graft
Description: (§3) FIG. 6 is a graph presentation of the effectiveness of bacterial graft-associated infection inhibition by hamamelitannin and RIP against challenge by methicillin resistant S. aureus and S. epidermidis (MRSA and MRSE) using pre-incubation.
(§4) To measure the amount of hamamelitannin necessary to prevent device-associated infections, bacteria (2×10^7 MRSA or MRSE) were pre-incubated with increasing amounts of hamamelitannin for 30 min at room temperature. Grafts were implanted and rats were challenged with the pre-incubated bacteria. Seven days later the graft was removed and bacterial load determined. […] No bacteria was found when either MRSA or MRSE were pre-incubated with >20 μg hamamelitannin.
(§5) In the testing reflected in FIG. 6 and summarized above, to ascertain the amount of hamamelitannin/bacteria necessary to potentially prevent device-associated infections, bacteria (2×10^7 MRSE or MRSA in 150 μl saline) were pre-incubated with hamamelitannin (0, 0.5, 10, 20, 30, 50 μg) for 30 min at room temperature, as noted. Grafts were implanted and rats were challenged with the pre-incubated bacteria. Seven days later the graft was removed and bacterial load determined. […] When the bacteria was treated with 0.5, 10, 20, 30 or 50 μg hamamelitannin, MRSE load was 8.4×10^3±2.2×10^3 for 0.5 μg and 8.7×10^1±6.6×10^1 for 10 μg.

S. aureus cells = experiment: S. aureus cell attachment in vitro in polystyrene plates; assay type: cell-based; settings: for reduction of cell attachment (in words): 0-50 μg, 3 hrs at 37° C., OD 595 nm; for amount most effective in reducing cell attachment: converted dose
Description: Attached cells were stained and OD595nm was determined.
To test for the effect of hamamelitannin on bacterial attachment in vitro, S. aureus cells were incubated with 0-50 μg hamamelitannin or RIP in polystyrene plates for 3 hrs at 37° C. Adherent bacteria were stained with methylene blue and OD determined at 595 nm.

MRSA [5] = experiment: Rat graft-associated infection, local treatment (graft soak), MRSA challenge; assay type: in vivo, S. aureus
Description: as §1, §2

MRSA [6] = experiment: Rat graft-associated infection, bacteria pre-incubated with agent, MRSA challenge; assay type: in vivo, S. aureus; settings: for amount that could prevent an infection: infection caused by 2×10^7 CFU MRSA, rat graft
Description: as §3, §4, §5

CC1(C)S[C@@H]2[C@H](NC(=O)[C@H](N)c3ccccc3)C(=O)N2[C@H]1C(=O)O [ampicillin, reference compound]
MIC of ampicillin (reference drug) (S. aureus strain; same S. aureus strain): 0.2 uM per 1000 bacteria

O=C(OC[C@H]1OC(O)[C@@](O)(COC(=O)c2cc(O)c(O)c(O)c2)[C@@H]1O)c1cc(O)c(O)c(O)c1 (stereo partly drawn) [hamamelitannin, 2′,5-di-O-galloyl hamamelose]
minimum concentration with high protective activity against cell damage [1]: 50 µM
bacterial load on graft (MRSE [2]; MRSE, graft pre-soaked with 0.5 mg/L): 9.0×10^4±2.6×10^4 CFU/mL
bacterial load on graft (MRSE [2]; MRSE, graft soaked with 10 mg/L): 2.1×10^3±0.2×10^3 CFU/mL
bacterial load on graft (MRSE [2]; MRSE, graft soaked with 30 or 50 mg/L): < 10 CFU/mL
pre-soak concentration at which grafts show no signs of infection (MRSE [2]; challenge 2×10^7, MRSE): at least 30 mg/L and ~60 uM
decrease in bacterial load versus untreated control (in words) (MRSE [2]; grafts presoaked 1 h, 0-50 mg/L, MRSE): Significant (p<0.05) decrease in bacterial load
concentration inhibiting tumor necrosis factor α-mediated endothelial cell death [3]: less than 100 uM
minimal dose inhibiting RNAIII production (RNAIII): 0.2 picomoles per 1000 bacteria
inhibition of RNAIII synthesis (in words) (RNAIII; 2×10^7 cells, 2.5 hrs): inhibits RNAIII synthesis in a dose dependent manner
dose most effective in inhibiting RNAIII synthesis (RNAIII; 2×10^7 cells, 2.5 hrs): > 2 μg/2×10^7 bacteria
amount that could prevent an infection (MRSE [4]): 10 µg
amount at which no bacteria was found on graft (MRSE [4]; rat, 2×10^7 MRSE pre-incubated 30 min, graft removed after seven days): > 20 µg
MRSE load on graft (MRSE [4]; rat, 2×10^7 MRSE pre-incubated with 0.5 μg, day 7): 8.4×10^3±2.2×10^3 CFU/ml
MRSE load on graft (MRSE [4]; rat, 2×10^7 MRSE pre-incubated with 10 μg, day 7): 8.7×10^1±6.6×10^1 CFU/ml
MRSE graft infection (in words) (MRSE [4]; rat, 2×10^7 MRSE pre-incubated with 20, 30 or 50 μg, day 7): No sign of infection
reduction of cell attachment (in words) (S. aureus cells): reduced cell attachment in a dose-dependent manner
amount most effective in reducing cell attachment (S. aureus cells): 0.4 picomoles/10^3 bacteria
bacterial load on graft (in words) (MRSA [5]; MRSA, graft pre-soaked in 30 or 50 mg/L, day 7): no bacterial load was detected
bacterial load on graft (MRSA [5]; MRSA, graft soaked with 0.5 mg/L, day 7): 9.3×10^4±2.8×10^4 CFU/mL
bacterial load on graft (MRSA [5]; MRSA, graft soaked with 10 mg/L, day 7): 2.6×10^3±0.3×10^3 CFU/mL
bacterial load on graft (MRSA [5]; MRSA, graft soaked with 20 mg/L, day 7): 3.7×10^1±1.1×10^1 CFU/mL
pre-soak concentration at which grafts show no signs of infection (MRSA [5]; challenge 2×10^7, MRSA): at least 30 mg/L and ~60 uM
decrease in bacterial load versus untreated control (in words) (MRSA [5]; grafts presoaked 1 h, 0-50 mg/L, MRSA): Significant (p<0.05) decrease in bacterial load
concentration affecting bacterial growth in vitro (no effect even at concentrations as high as) (S. aureus strain; S. aureus): > 2.5 mM per 1000 bacteria
highest concentration without effect on growth relative to the MIC of ampicillin (S. aureus strain; same S. aureus strain): 13,000 times
amount that could prevent an infection (MRSA [6]): 10 µg
amount at which no bacteria was found on graft (MRSA [6]; rat, 2×10^7 MRSA pre-incubated 30 min, graft removed after seven days): > 20 µg
MRSA load on graft (MRSA [6]; rat, 2×10^7 MRSA pre-incubated with 0.5 μg, day 7): 8.8×10^3±2.3×10^3 CFU/mL
MRSA load on graft (MRSA [6]; rat, 2×10^7 MRSA pre-incubated with 10 μg, day 7): 3.6×10^2±0.8×10^2 CFU/mL
MRSA graft infection (in words) (MRSA [6]; rat, 2×10^7 MRSA pre-incubated with 20, 30 or 50 μg, day 7): No sign of infection

RIP: RNAIII-inhibiting peptide, sequence YSPWTNF, antagonist of RAP [reference compound]
minimal dose inhibiting RNAIII production (RNAIII): 0.5 picomoles per 1000 bacteria
inhibition of RNAIII synthesis (in words) (RNAIII; 2×10^7 cells, 2.5 hrs): inhibited RNAIII production in a dose dependent manner
dose most effective in inhibiting RNAIII synthesis (RNAIII; 2×10^7 cells, 2.5 hrs): 8 μg/2×10^7 bacteria
dose most effective in inhibiting RNAIII synthesis (RNAIII; converted dose): 0.5 picomoles/10^3 bacteria
amount that could prevent an infection (MRSE [4]): 10 µg
reduction of cell attachment (in words) (S. aureus cells): reduced cell attachment in a dose-dependent manner
amount most effective in reducing cell attachment (S. aureus cells): 0.4 picomoles/10^3 bacteria
amount that could prevent an infection (MRSA [6]): 10 µg
